Source: patent publication US9963462B2 (priority 2015, dated 2018)

Assays:
[1] = target: SNAP-hSPR (sepiapterin reductase, SPR) (Homo sapiens, UniProt P35270); experiment: biochemical; format: binding; conditions: terbium labelled SNAP-hSPR / SSZ labelled SNAP-EGFP; read-out: hTR-FRET IC50
[2] = tested on: BH4 levels in SK-N-BE (2) cells; experiment: SKN-N-BE (2) cellular assay, BH4 levels by LC-MS; format: cell-based; conditions: Homo sapiens, SKNBE2, read-out: SK-N-BE(2) IC50, SK-N-BE (2) cells, BH4 levels by LC-MS

Chain of SNAP-hSPR (sepiapterin reductase, SPR) (P35270 whole entry): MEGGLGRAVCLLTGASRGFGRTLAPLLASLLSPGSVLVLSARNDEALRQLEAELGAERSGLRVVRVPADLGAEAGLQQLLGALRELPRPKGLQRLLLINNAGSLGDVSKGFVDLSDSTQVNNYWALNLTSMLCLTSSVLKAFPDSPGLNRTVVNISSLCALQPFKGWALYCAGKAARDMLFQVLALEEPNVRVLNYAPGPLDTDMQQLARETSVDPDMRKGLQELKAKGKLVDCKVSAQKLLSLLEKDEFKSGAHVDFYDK

Structure (SMILES) | IC50 [1] | IC50 [2]
COc1ccc2c(c1)CN(C(=O)c1cnn(-c3nc(C)cc(=O)[nH]3)c1C)CC2 [Q-0307] | 9 nM | 4200 nM
O=C(c1ccnc(-c2nc3ccsc3c(=O)[nH]2)c1)N1CCC(C(F)(F)F)CC1 [Q-0515] | 40 nM | 5300 nM
Cc1c(C(=O)N2CC3CN(C)CC3C2)cnn1-c1nn2cccc2c(=O)[nH]1 (stereo not drawn) [Q-0847] | 20 nM | 8800 nM
O=C(c1cnn(-c2nc3sccc3c(=O)[nH]2)c1)N1CCC(CC(F)(F)F)CC1 [Q-0752] | 4 nM | 500 nM
Cc1c(C(=O)N2CCC(c3nc4ccccc4s3)CC2)cnn1-c1nc2ccsc2c(=O)[nH]1 [Q-0559] | 7 nM | 38 nM
Cc1c(C(=O)N2CC(N3CCC(F)(F)CC3)C2)cnn1-c1nn2cccc2c(=O)[nH]1 [Q-0818] | 2 nM | 900 nM
O=C(c1cnn(-c2nc3c(c(=O)[nH]2)CCC3)c1)N1CCC(CC(F)(F)F)CC1 [Q-0744] | 3 nM | 100 nM
Cc1c(C(=O)N2CCC3C(C2)C3C(F)(F)F)cnn1-c1nn2cccc2c(=O)[nH]1 (stereo not drawn) [Q-0844] | 1 nM | 200 nM
O=C(c1ccnc(-c2nc3c(c(=O)[nH]2)CCC3)c1)N1CCC(C(F)(F)F)CC1 [Q-0508] | 30 nM | 2000 nM
Cc1cc(=O)[nH]c(-n2nc(C)c(CCC(=O)N3CCCC3)c2C)n1 [Q-0281] | 60 nM | 9000 nM
Cc1c(C(=O)N2CCC(C(F)(F)F)C2)cnn1-c1nc2c(c(=O)[nH]1)CCC2 (stereo not drawn) [Q-0431] | 3 nM | 500 nM
Cc1c(C(=O)N2CCC(c3ccccc3)CC2)cnn1-c1nc2c(c(=O)[nH]1)CCC2 [Q-0428] | 3 nM | 19 nM
Cc1cc(=O)[nH]c(-n2nc(C(=O)N3CCc4ccccc4C3)cc2C)n1 [Q-0365, 6-methyl-2-[5-methyl-3-(1,2,3,4-tetrahydroisoquinoline-2-carbonyl)-1H-pyrazol-1-yl]-3,4-dihydropyrimidin-4-one] | 50 nM | 12000 nM
Cc1cc(=O)[nH]c(-n2ncc(C(=O)N3CCc4ccccc4C3)c2CC(C)C)n1 [Q-0353] | 50 nM | 15000 nM
O=C(c1ccn(-c2nc3ccsc3c(=O)[nH]2)n1)N1CCc2ccccc2C1 [Q-0388] | 100 nM | 36000 nM
O=C(c1cnn(-c2nc3c(c(=O)[nH]2)CCC3)c1)N1CCN(c2ccc(F)cc2F)CC1 [Q-0735] | 3 nM | 95 nM
Cc1cc(=O)[nH]c(-n2ncc(C(=O)N3CCOCC3)c2C(F)F)n1 [Q-0349] | 30 nM | 57000 nM
Cc1nc(-n2ncc(C(=O)N3c4ccccc4CC3C)c2C)[nH]c(=O)c1C (stereo not drawn) [Q-0404] | 40 nM | 4300 nM
Cc1c(C(=O)N2CCC(C(F)(F)F)CC2)cnn1-c1nn2cc(F)cc2c(=O)[nH]1 [Q-0543] | 3 nM | 400 nM
Cc1c(C(=O)N2CCc3ccccc3C2)cnn1-c1nc(C(C)(C)C)cc(=O)[nH]1 [Q-0383] | 300 nM | 69000 nM
O=C(c1cnn(-c2nc3ccsc3c(=O)[nH]2)c1)N1CCC(c2c[nH]c3ccccc23)CC1 [Q-0527] | 30 nM | 45 nM

Structure (SMILES) | IC50 [1] | IC50 [2]
O=C(c1cnn(-c2nc3sccc3c(=O)[nH]2)c1)N1CCC(C(F)(F)F)CC1 [Q-0753] | 2 nM | 200 nM
Cc1c(C(=O)N2CCC(CC(F)(F)F)CC2)cnn1-c1nc2sccc2c(=O)[nH]1 [Q-0724] | 2 nM | 200 nM
Cc1c(C(=O)N2CCC(C(C)(C)C)CC2)cnn1-c1nc2ccsc2c(=O)[nH]1 [Q-0399] | 3 nM | 24 nM
O=C(c1cnn(-c2nn3cc(F)cc3c(=O)[nH]2)c1)N1CCC(CC(F)(F)F)CC1 [Q-0741] | 4 nM | 400 nM
Cc1c(C(=O)N2CCC(C(F)(F)F)CC2C)cnn1-c1nc2ccsc2c(=O)[nH]1 (stereo not drawn) [Q-0422] | 3 nM | 200 nM
Cc1c(C(=O)N2CCC(NC(=O)OC(C)(C)C)(C(F)(F)F)C2)cnn1-c1nn2cccc2c(=O)[nH]1 (stereo not drawn) [Q-0852] | 2 nM | 800 nM
COC(=O)C12CC(C(=O)N3CCN(C(=O)c4cnn(-c5nc6c(c(=O)[nH]5)CCC6)c4C)CC3)(C1)C2 [Q-0612] | 10 nM | 2600 nM
Cc1c(C(=O)N2CCN(c3ccc(F)cc3F)CC2)cnn1-c1nc2c(c(=O)[nH]1)CCC2 [Q-0567] | 3 nM | 20 nM
Cc1c(C(=O)N(CCc2ccccc2)CC(O)C(F)(F)F)cnn1-c1nc2c(c(=O)[nH]1)CCC2 (stereo not drawn) [Q-0502] | 20 nM | 400 nM
Cc1c(C(=O)N2CC3C(C2)C3(F)F)cnn1-c1nn2cccc2c(=O)[nH]1 (stereo not drawn) [Q-0807] | 2 nM | 400 nM
Cc1c(C(=O)N2CC3CC3(O)C2)cnn1-c1nc2sccc2c(=O)[nH]1 (stereo not drawn) [Q-0617] | 20 nM | 3000 nM
Cc1cc(=O)[nH]c(-n2ncc(C(=O)NC34CC5CC(CC(C5)C3)C4)c2C)n1 [Q-0305] | 30 nM | 4600 nM
Cc1cc(=O)[nH]c(-n2cc(C(=O)N3CCC(C(F)(F)F)CC3)c(C)n2)n1 [Q-0432, 6-methyl-2-{3-methyl-4-[4-(trifluoromethyl)piperidine-1-carbonyl]-1H-pyrazol-1-yl}-3,4-dihydropyrimidin-4-one] | 40 nM | 6500 nM
O=c1[nH]c(-n2cc(OC3CCCC3)cn2)nc2c1CCC2 [Q-0529] | 10 nM | 100 nM
Cc1cc(=O)[nH]c(-n2ncc(C(=O)NC3CCCC3)c2C(F)F)n1 [Q-0331] | 80 nM | 15000 nM
Cc1cc(=O)[nH]c(-n2ncc(C(=O)N(C)C3CCCc4ccccc43)c2C)n1 (stereo not drawn) [Q-0373] | 20 nM | 1500 nM
Cc1cc(=O)[nH]c(-n2ncc(C(=O)N3CCc4cn[nH]c4C3)c2C)n1 [Q-0328] | 10 nM | 53000 nM
Cc1c(C(=O)N(Cc2ccccc2)[C@@H](C)c2ccccc2)cnn1-c1nc2c(c(=O)[nH]1)CCC2 [Q-0493] | 30 nM | 29 nM
Cc1cc(=O)[nH]c(-n2ncc(C(=O)NCC(F)(F)C(F)(F)F)c2C)n1 [Q-0364] | 70 nM | 16000 nM
Cc1c(C(=O)N2CCN(C(=O)OC(C)(C)C)CC23CCC3)cnn1-c1nn2cccc2c(=O)[nH]1 [Q-0798] | 2 nM | 300 nM
Cc1c(C(=O)N2CCC3(CCCC3)C2)cnn1-c1nn2cccc2c(=O)[nH]1 [Q-0808] | 1 nM | 200 nM

Structure (SMILES) | IC50 [1] | IC50 [2]
O=C(c1ccn(-c2nn3cccc3c(=O)[nH]2)c1)N1CCC(C(F)(F)F)CC1 [Q-0738] | 1 nM | 100 nM
CC(C#N)C1CCN(C(=O)c2cnn(-c3nc4c(c(=O)[nH]3)CCC4)c2C2CC2)CC1 (stereo not drawn) [Q-0578] | 8 nM | 700 nM
N#CC1(c2ccccc2)CCN(C(=O)c2cnn(-c3nn4cccc4c(=O)[nH]3)c2)CC1 [Q-0534] | 3 nM | 100 nM
O=C(c1cnn(-c2nn3c(F)ccc3c(=O)[nH]2)c1)N1CCC(CC(F)(F)F)CC1 [Q-0758] | 2 nM | 90 nM
CCC1(C#N)CCN(C(=O)c2cnn(-c3nn4c(F)ccc4c(=O)[nH]3)c2C)CC1 [Q-0623] | 1 nM | 78 nM
Cc1c(C(=O)N2CCC3(CCCCN3)C2)cnn1-c1nc2c(c(=O)[nH]1)CCC2 (stereo not drawn) [Q-0577, 2-(5-methyl-4-(2,6-diazaspiro[4.5]decane-2-carbonyl)-1H-pyrazol-1-yl)-6,7-dihydro-3H-cyclopenta[d]pyrimidin-4(5H)-one] | 40 nM | 2100 nM
Cc1c(C(=O)N2CCc3ccccc3C2)cnn1-c1nc2c(c(=O)[nH]1)CCC2 [Q-0396] | 2 nM | 61 nM
Cc1c(C(=O)N2CCC(C(C)(C)C)CC2)cnn1-c1nc2c(c(=O)[nH]1)CCC2 [Q-0580] | 3 nM | 22 nM
Cc1c(C(=O)N2CCC(c3c[nH]c4ccccc34)CC2)cnn1-c1nc2sccc2c(=O)[nH]1 [Q-0573] | 3 nM | 35 nM
Cc1cc2nc(-n3ncc(C(=O)N4CCC(C(F)(F)F)CC4)c3C)[nH]c(=O)c2s1 [Q-0409] | 200 nM | 25000 nM
Cc1c(C(=O)N2CCC(C(C)(C)C#N)CC2)cnn1-c1nc2c(c(=O)[nH]1)CCC2 [Q-0469] | 4 nM | 37 nM
Cc1c(C(=O)N2CC(CNC(=O)OC(C)(C)C)C2)cnn1-c1nc2c(c(=O)[nH]1)CCC2 [Q-0568] | 6 nM | 200 nM
Cc1cc(=O)[nH]c(-n2ccc(C(=O)N3CCc4ccccc4C3)n2)n1 [Q-0308, 6-methyl-2-[3-(1,2,3,4-tetrahydroisoquinoline-2-carbonyl)-1H-pyrazol-1-yl]-3,4-dihydropyrimidin-4-one] | 20 nM | 2000 nM
Cc1c(C(=O)N2C3CCC2CN(c2ccc(C(F)(F)F)cn2)C3)cnn1-c1nn2cccc2c(=O)[nH]1 [Q-0854] | 3 nM | 200 nM
Cc1c(C(=O)N2Cc3ccccc3C[C@H]2C(=O)NC(C)(C)C)cnn1-c1nc2c(c(=O)[nH]1)CCC2 [Q-0489] | 8 nM | 53 nM
O=C(O)c1ccnc(-c2nc3sccc3c(=O)[nH]2)c1 [Q-0566] | 5000 nM | 10000 nM
Cc1cc(=O)[nH]c(-n2ncc(C(=O)N3CCc4ccccc4C3C)c2C)n1 (stereo not drawn) [Q-0313] | 6 nM | 1500 nM
Cc1c(C(=O)N2CCC(F)(F)CC2)cnn1-c1nc2c(c(=O)[nH]1)CCC2 [Q-0424] | 4 nM | 1100 nM
Cc1cc(=O)[nH]c(-n2ncc(C(=O)NCc3cnccn3)c2C)n1 [Q-0344] | 70 nM | 23000 nM
CN[C@@H]1CCN(C(=O)c2cnn(-c3nc4c(c(=O)[nH]3)CCC4)c2C)C1 [Q-0588] | 70 nM | 4700 nM
COC1(C)CCN(C(=O)c2cnn(-c3nc4c(c(=O)[nH]3)CCC4)c2C)CC1 [Q-0520] | 3 nM | 200 nM
